Where no end group is shown, it is not given here.
Legend:
MRC-5 cells = test: Cytotoxicity in MRC-5 cells (CellTiter 96 cell viability); conditions: 6 days incubation
in vitro [1] = conditions: human, MRC-5 cells
Pseudomonas aeruginosa = type: cell-based; conditions: 5 micrograms per ml
MRSA = conditions: 5 micrograms per ml
in vitro [2] = conditions: human
Streptococcus pneumoniae = type: cell-based; conditions: 5 micrograms per ml
in vitro [3] = conditions: human, HepG2-2.2.15 cells

Molecule	% Cell viability (MRC-5 cells)	viability at 144 h (in vitro [1])	% inhibition (Pseudomonas aeruginosa)	% inhibition (MRSA)	viability at 10 micrograms per ml (in vitro [2])	% inhibition (Streptococcus pneumoniae)	viability at 144 h, 10 micrograms per ml (in vitro [3])
Nc1nc(O)c2ncn(COC(CO)CO)c2n1 [Ganciclovir]	100%						
VPIQKVQDDTKTLIKTIVTRINDISHTQSVSSKQK-OH [Leptin (22-56)]		100%	0.0%	0.0%	93.5%	0.0%	100%
